Experimental data: ChEMBL document CHEMBL5537177, “Discovery of Potent Antimalarial Type II Kinase Inhibitors with Selectivity over Human Kinases” (J Med Chem, 2024)
Activity calls are given as the source filed them. The rule behind the calls is not given here.

Columns and labels:
Plasmodium falciparum [1] = experiment: (§1) Antimalarial activity against synchronized early ring stage Plasmodium falciparum 3D7 (MRA-152) clinical isolate assessed as decrease in parasite survival at ring stage at 10 times EC50 treated for 48 hrs followed by compound removal measured after 72 hrs by geimsa staining based microscopy; assay type: functional, organism-based
[2] = Tmax in mouse at 10 mg/kg, po; assay type: ADME, organism-based; conditions: in vivo
Plasmodium falciparum [3] = experiment: Antimalarial activity against synchronized Plasmodium falciparum 3D7 assessed as reduction in parasite growth at early asexual stage treated 6 hrs post-invasion measured after 72 hrs by SYBR green I dye based microscopy; assay type: functional, organism-based
Plasmodium falciparum [4] = experiment: Antimalarial activity against synchronized Plasmodium falciparum Dd2 assessed as reduction in parasite growth at early asexual stage treated 26 hrs post-invasion measured after 72 hrs by SYBR green I dye based microscopy; assay type: functional, organism-based
Plasmodium falciparum [5] = experiment: as §1, with “against artemisinin-resistant” for “against”, “IPC 5202 (MRA-1240)” for “3D7 (MRA-152)”; assay type: functional, organism-based
Plasmodium berghei [6] = experiment: (§2) Antimalarial activity against […] Plasmodium berghei sporozoites expressing GFP-Luc SMcon infected in Swiss Webster mouse assessed as decrease in recrudescence at 15 to 50 mg/kg, iv pretreated for 6 hrs followed by parasite infection measured after 90 days post-infection by SYBR Green I dye based flow cytometry; assay type: functional, organism-based; conditions: dose 15-50 mg/kg, time 90.25 day
Plasmodium falciparum [7] = experiment: Antimalarial activity against synchronized Plasmodium falciparum Dd2 assessed as absence of rightward shift of YOYO-1 peak at 5 times EC50 treated 6 hrs post-invasion measured after 54 hrs post-invasion by flow cytometry; assay type: functional, organism-based; conditions: time 48.0 hrs
Plasmodium falciparum [8] = experiment: Resistance index, ratio of EC50 for multidrug-resistant Plasmodium falciparum Dd2 at ring stage infected in A+ erythrocytes to EC50 for drug-sensitive Plasmodium falciparum 3D7 at ring stage infected in A+ erythrocytes; assay type: organism-based; conditions: human
Plasmodium falciparum [9] = experiment: Antimalarial activity against Plasmodium falciparum harboring CARL I1139K mutation assessed as reduction in parasitemia incubated for 72 hrs by SYBR green I dye based analysis; assay type: functional, organism-based
[10] = Oral bioavailability in mouse at 10 mg/kg; assay type: ADME, organism-based; conditions: in vivo
[11] = AUC (infinity) in mouse at 2 mg/kg, iv; assay type: ADME, organism-based; conditions: in vivo
Plasmodium falciparum [12] = experiment: Antiplasmodial activity against drug-sensitive Plasmodium falciparum 3D7 at ring stage infected in A+ erythrocytes assessed as parasite growth reduction incubated for 72 hrs by SYBR Green I dye based analysis; assay type: functional, organism-based; conditions: 3D7, Erythrocyte
Plasmodium falciparum [13] = experiment: Antimalarial activity against synchronized Plasmodium falciparum Dd2 assessed as aberrant morphology of parasites at 5 times EC50 treated 42 hrs post-invasion measured after 54 hrs post-invasion by Geimsa staining based microscopy; assay type: functional, organism-based; conditions: time 12.0 hrs
[14] = Cmax in mouse at 10 mg/kg, po; assay type: ADME, organism-based; conditions: in vivo
Plasmodium berghei [15] = experiment: as §2, with “reduction” for “decrease”, “parasitemia” for “recrudescence”, “for 2 to 16” for “after 90”; assay type: functional, organism-based; conditions: dose 15-50 mg/kg, time 2.25-16.25 day
Plasmodium falciparum [16] = experiment: Antimalarial activity against synchronized Plasmodium falciparum Dd2 assessed as malformation of parasites at 5 times EC50 treated 18 to 30 hrs post-invasion measured after 54 hrs post-invasion by Geimsa staining based microscopy; assay type: functional, organism-based; conditions: time 24-36 hrs
HepG2 = experiment: Cytotoxicity against human HepG2 cells assessed as reduction in cell viability incubated for 48 hrs by MTS assay; assay type: toxicity, cell-based; conditions: hepg2
[17] = AUC (infinity) in mouse at 10 mg/kg, po; assay type: ADME, organism-based; conditions: in vivo
MCF7 = experiment: Cytotoxicity against human MCF7 cells assessed as reduction in cell viability incubated for 48 hrs by MTS assay; assay type: toxicity, cell-based; conditions: mcf7
Plasmodium falciparum [18] = experiment: microbe, parasite or virus in culture; conditions: Dd2, 72 h
Description: Antiplasmodial activity against asynchronous Plasmodium falciparum Dd2 assessed as parasite growth reduction incubated for 72 hrs by SYBR Green I dye based analysis

Plasmodium falciparum [19] = experiment: Antimalarial activity against synchronized Plasmodium falciparum Dd2 assessed as delay in rightward shift of YOYO-1 peak at 5 times EC50 treated 18 to 30 hrs post-invasion measured after 54 hrs post-invasion by flow cytometry; assay type: functional, organism-based; conditions: time 24-36 hrs
[20] = AUC (last) in mouse at 10 mg/kg, po; assay type: ADME, organism-based; conditions: in vivo
Plasmodium falciparum [21] = experiment: Antimalarial activity against ring-stage Plasmodium falciparum Dd2 infected in O+ RBCs assessed as reduction in parasitemia incubated for 72 hrs by SYBR green I dye based analysis; assay type: functional, organism-based, RBC; conditions: Dd2, Erythrocyte
Plasmodium falciparum [22] = experiment: Antimalarial activity against synchronized early ring stage Plasmodium falciparum 3D7 (MRA-152) clinical isolate assessed as decrease in parasite survival at ring stage at 10 times EC50 treated for 6 hrs followed by compound removal measured after 72 hrs by geimsa staining based microscopy; assay type: functional, organism-based
[23] = Tmax in mouse at 2 mg/kg, iv; assay type: ADME, organism-based; conditions: in vivo
Plasmodium falciparum [24] = experiment: Antimalarial activity against synchronous blood-stage Plasmodium falciparum 3D7 assessed as parasite clearance time at 10 times EC50 treated every 24 hrs for 120 hrs followed by compound washout and subsequent addition of RBCs measured after 21 days by parasite reduction ratio assay; assay type: functional
Plasmodium falciparum [25] = experiment: as §1, with “against artemisinin-resistant/piperaquine-sensitive” for “against”, “IPC 5202 (MRA-1240)” for “3D7 (MRA-152)”, “for 6 to” for “for”; assay type: functional, organism-based
Plasmodium falciparum [26] = experiment: Antimalarial activity against patient-derived ring-stage Plasmodium falciparum clinical isolate from Tororo town of Uganda infected in O+ RBCs assessed as reduction in parasitemia incubated for 72 hrs by SYBR green I dye based analysis; assay type: functional, organism-based, RBC; conditions: Erythrocyte

CCN1CCN(Cc2ccc(NC(=O)c3cc(Cl)cc(NC(=O)c4cncc(-c5cccs5)c4)c3)cc2C(F)(F)F)CC1
Activity (Plasmodium falciparum [1]): Active
Tmax [2]: 4.67 h
EC50 (Plasmodium falciparum [3]): 0.0296 µM
EC50 (Plasmodium falciparum [4]): 0.0697 µM
Activity (Plasmodium falciparum [5]): Active
Activity (Plasmodium berghei [6]): Active
Activity (Plasmodium falciparum [7]): Active
Ratio EC50 (Plasmodium falciparum [8]): 1.4
EC50 (Plasmodium falciparum [9]): 0.0658 µM
bioavailability [10]: 4.8%
AUC(0-inf) [11]: 8.16 µg·h/mL
EC50 (Plasmodium falciparum [12]): 0.042 µM
Activity (Plasmodium falciparum [13]): Active
Cmax [14]: 0.153 µg/mL
Activity (Plasmodium berghei [15]): Active
Activity (Plasmodium falciparum [16]): Active
EC50 (HepG2): 2.59 µM
AUC(0-inf) [17]: 1.64 µg·h/mL
EC50 (MCF7): 3.51 µM
EC50 (Plasmodium falciparum [18]): 0.08 µM
Activity (Plasmodium falciparum [19]): Active
AUC(0-t) [20]: 0.866 µg·h/mL
EC50 (Plasmodium falciparum [21]): 0.0229 µM
Activity (Plasmodium falciparum [22]): inactive
Tmax [23]: 4.8 min
T99.9% (Plasmodium falciparum [24]): < 32 h
EC50 (Plasmodium falciparum [25]): 0.0722 µM
EC50 (Plasmodium falciparum [26]): 0.0092 µM
